Test results reported in article PMC6162447, “Engineering Gain-of-Function Analogues of the Spider Venom Peptide HNTX-I, A Potent Blocker of the hNaV1.7 Sodium Channel” (Toxins, 2018).
Bridge positions count the residues as written; N and C are the ends. Peptide text beside a SMILES is read from it.

Target: T1, hNaV1.7 (Homo sapiens, UniProt Q15858)
T1 construct: expressed in transfected cells; host or cells: HEK 293
Test: Whole-cell patch clamp on hNaV1.7 expressed in HEK 293 cells
Format: cell-based
Settings: for IC50: HEK 293 cells transfected with hNaV1.7 plus human β1 and β2 subunits, room temperature (20–25 °C), 50 ms depolarization to −10 mV from holding −100 mV, mean ± SEM; for Activity on NaV1.7 at a concentration of 10 µM: 10 µM peptide, HEK 293 cells (Figure 2A–C)
Procedure: We maintained human embryonic kidney (HEK) 293 cells at 37 °C in a humidified 5% CO2 incubator in Dulbecco’s Modified Eagle’s Medium (DMEM) supplemented with 10% fetal bovine serum (FBS), 2 mM L-glutamine, 100 units/mL penicillin and 100 µg/mL streptomycin. cDNA genes encoding rat Nav1.2 and mouse Nav1.6 were subcloned into the vectors pcDNA3.1, respectively. We subcloned the gene that encodes hNaV1.7 into the vector pcDNA3.1-mod. We transfected the hNaV1.7 channel (3 μg) together with plasmids β1- (1 μg) and β2-eGFP ([…]), which encode the human β1 and β2 subunits, and Nav1.2 and Nav1.6 together with eGFP in HEK 293 cells using Lipofectamine 2000 (Invitrogen, Carlsbad, CA, USA) per the manufacturer’s instructions.
We performed whole-cell recordings using an EPC 10 patch clamp platform (HEKA, Elektronik, Lambrecht, Germany) at room temperature (20–25 °C). We made suction pipettes with access resistance of 2.0–3.0 MΩ from borosilicate glass capillary tubes (VWR micropipettes; VWR Co., West Chester, PA, USA) using a 2-step vertical microelectrode puller (PC-10; Narishige Co., Ltd., Tokyo, Japan) and compensated for voltage errors using 80% serial-resistance compensation. The standard pipette solution contained (in mM): 140 CsCl, 10 NaCl, 1 ethylene glycol-bis (β-aminoethyl ether)-N,N,N′,N′-tetraacetic acid (EGTA), and 10 HEPES (pH 7.4). The bath solution contained (in mM): 140 NaCl, 2 CaCl2, 1 MgCl2, 5 KCl, 20 4-(2-hydroxyethyl)-1-piperazineethanesulfonic acid (HEPES) and 10 glucose (pH 7.4). We purchased all chemicals from Sigma-Aldrich (St. Louis, MO, USA) and dissolved them in water. Data were acquired using PATCHMASTER software version 2x73 (HEKA Elektronik Dr. Schulze GmbH, Lambrecht, Germany). We filtered macroscopic sodium currents at 5 kHz and sampled them at 20 kHz. We acquired voltage clamp recordings 5 min after establishing a whole-cell configuration to allow adequate equilibration between the micropipette solution and the cell interior. We elicited channel current by 50 milliseconds of depolarization potential to −10 mV from the holding voltage of −100 mV.
We analyzed the data using Igor Pro software version 6.10A (WaveMetrics, Lake Oswego, OR, USA), Sigmaplot software version 10 (Sigma, St. Louis, MO, USA), OriginPro software version 8 (OriginLab Corp., Northampton, MA, USA) and Prism software version 5 (GraphPad Software, San Diego, CA, USA). Concentration–response curves were fitted using the following Hill logistic equation:y = fmax − (fmax − fmin)/(1 + (x/IC50)^n)(1) where fmax and fmin respectively represent the channel’s maximum and minimum responses to toxins, fmin was set to 0, x represents toxin concentration and n is an empirical Hill coefficient. All quantitative results are presented as mean ± standard error of the mean (SEM).

T1 sequence (O60939 30-215): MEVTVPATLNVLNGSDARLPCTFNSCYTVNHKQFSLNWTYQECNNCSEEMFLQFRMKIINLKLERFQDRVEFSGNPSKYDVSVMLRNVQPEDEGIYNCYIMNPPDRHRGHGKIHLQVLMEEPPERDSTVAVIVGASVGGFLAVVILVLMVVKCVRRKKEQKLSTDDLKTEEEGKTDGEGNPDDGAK
T1 sequence (Q07699 19-218, further chain): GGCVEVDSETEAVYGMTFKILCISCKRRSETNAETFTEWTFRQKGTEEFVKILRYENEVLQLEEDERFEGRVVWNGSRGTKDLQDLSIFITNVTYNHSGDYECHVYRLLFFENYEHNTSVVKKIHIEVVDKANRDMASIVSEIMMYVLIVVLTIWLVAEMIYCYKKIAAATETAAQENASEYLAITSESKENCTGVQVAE
T1 sequence (Q15858 other isoform, or with tags, fused parts or gaps): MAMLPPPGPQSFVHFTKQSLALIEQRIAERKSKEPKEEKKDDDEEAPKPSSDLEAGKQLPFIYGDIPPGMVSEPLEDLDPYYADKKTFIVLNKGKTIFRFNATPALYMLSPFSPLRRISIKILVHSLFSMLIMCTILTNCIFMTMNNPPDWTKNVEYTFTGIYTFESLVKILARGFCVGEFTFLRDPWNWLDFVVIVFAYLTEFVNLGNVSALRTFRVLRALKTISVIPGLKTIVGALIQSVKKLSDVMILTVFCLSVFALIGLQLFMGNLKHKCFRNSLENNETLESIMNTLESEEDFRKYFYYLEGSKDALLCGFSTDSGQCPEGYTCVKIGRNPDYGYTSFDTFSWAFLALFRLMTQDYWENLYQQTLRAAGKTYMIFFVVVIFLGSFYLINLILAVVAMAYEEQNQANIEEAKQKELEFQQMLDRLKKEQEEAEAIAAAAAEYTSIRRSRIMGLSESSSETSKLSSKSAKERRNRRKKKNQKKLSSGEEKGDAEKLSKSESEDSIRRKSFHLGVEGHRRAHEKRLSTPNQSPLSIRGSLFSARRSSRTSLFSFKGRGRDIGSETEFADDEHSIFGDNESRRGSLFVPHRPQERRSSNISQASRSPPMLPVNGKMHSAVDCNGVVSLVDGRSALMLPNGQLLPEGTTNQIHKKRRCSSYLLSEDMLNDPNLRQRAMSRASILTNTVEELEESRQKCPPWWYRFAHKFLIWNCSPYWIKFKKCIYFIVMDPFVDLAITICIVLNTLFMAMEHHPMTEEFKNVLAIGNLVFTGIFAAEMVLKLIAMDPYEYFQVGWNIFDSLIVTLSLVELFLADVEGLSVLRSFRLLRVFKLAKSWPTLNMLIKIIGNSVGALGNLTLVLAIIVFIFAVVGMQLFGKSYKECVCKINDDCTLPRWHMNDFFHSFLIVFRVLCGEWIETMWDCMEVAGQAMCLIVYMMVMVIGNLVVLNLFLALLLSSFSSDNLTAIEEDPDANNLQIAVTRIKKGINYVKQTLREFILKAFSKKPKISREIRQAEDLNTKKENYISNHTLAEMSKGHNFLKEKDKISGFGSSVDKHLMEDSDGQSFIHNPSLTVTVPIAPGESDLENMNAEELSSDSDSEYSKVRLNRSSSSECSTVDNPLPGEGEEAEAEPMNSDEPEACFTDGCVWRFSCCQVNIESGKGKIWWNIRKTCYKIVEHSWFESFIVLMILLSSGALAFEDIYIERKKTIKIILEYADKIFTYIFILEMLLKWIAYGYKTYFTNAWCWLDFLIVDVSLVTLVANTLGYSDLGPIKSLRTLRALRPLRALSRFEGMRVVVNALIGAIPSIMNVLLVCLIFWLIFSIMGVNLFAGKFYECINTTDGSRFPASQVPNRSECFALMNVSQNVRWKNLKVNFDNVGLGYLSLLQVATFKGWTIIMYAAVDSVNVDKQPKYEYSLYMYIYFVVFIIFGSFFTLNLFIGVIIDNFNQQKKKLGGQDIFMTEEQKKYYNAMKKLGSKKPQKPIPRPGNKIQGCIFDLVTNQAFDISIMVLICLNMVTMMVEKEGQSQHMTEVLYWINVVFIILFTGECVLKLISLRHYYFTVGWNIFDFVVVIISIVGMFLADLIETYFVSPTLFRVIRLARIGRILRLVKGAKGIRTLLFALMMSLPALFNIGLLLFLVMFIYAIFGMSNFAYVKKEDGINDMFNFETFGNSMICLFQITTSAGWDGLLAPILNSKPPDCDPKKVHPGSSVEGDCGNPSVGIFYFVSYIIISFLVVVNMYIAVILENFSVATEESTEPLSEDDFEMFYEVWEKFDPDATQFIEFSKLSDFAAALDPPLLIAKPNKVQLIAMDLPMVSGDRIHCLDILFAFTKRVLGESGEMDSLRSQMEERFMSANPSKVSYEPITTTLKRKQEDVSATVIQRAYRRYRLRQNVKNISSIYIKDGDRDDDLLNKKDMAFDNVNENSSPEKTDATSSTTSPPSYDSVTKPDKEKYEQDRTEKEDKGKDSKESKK

| SMILES | IC50 (n ≥ 3, SEM) [nM] | Activity on NaV1.7 at a concentration of 10 µM | IC50 (n ≥ 3) [nM] |
| --- | --- | --- | --- |
| CC(C)C[C@H](NC(=O)[C@H](CC(C)C)NC(=O)[C@@H](NC(=O)[C@H](CCCCN)NC(=O)[C@@H]1CSSC[C@@H]2NC(=O)[C@H](CCC(=O)O)NC(=O)[C@H](CC(N)=O)NC(=O)[C@H](CCCCN)NC(=O)CNC(=O)[C@@H]3CCCN3C(=O)[C@H](C(C)C)NC(=O)[C@@H]3CSSC[C@H](NC(=O)[C@H](C)NC(=O)[C@H](Cc4ccc(O)cc4)NC(=O)CNC(=O)[C@H](CO)NC(=O)[C@H](CSSC[C@H](NC(=O)[C@@H](N)CCC(=O)O)C(=O)N[C@@H](CCCCN)C(=O)NCC(=O)N[C@@H](Cc4ccccc4)C(=O)NCC(=O)N[C@@H](CCCCN)C(=O)N[C@@H](CO)C(=O)N3)NC2=O)C(=O)N[C@@H](CO)C(=O)N[C@@H](CO)C(=O)N[C@@H](CCCNC(=N)N)C(=O)N[C@@H](CC(=O)O)C(=O)N[C@@H](CCCCN)C(=O)N[C@@H](Cc2c[nH]c3ccccc23)C(=O)N1)C(C)C)C(=O)O [N23S] (H-ECKGFGKSCVPGKNECCSGYACSSRDKWCKVLL-OH; disulfide 2-17, 9-22, 16-29) | 435 ± 72 | – | – |
| CC(C)C[C@H](NC(=O)[C@H](Cc1c[nH]c2ccccc12)NC(=O)[C@@H](NC(=O)[C@H](CCCCN)NC(=O)[C@@H]1CSSC[C@@H]2NC(=O)[C@H](CCC(=O)O)NC(=O)[C@H](CC(N)=O)NC(=O)[C@H](CCCCN)NC(=O)CNC(=O)[C@@H]3CCCN3C(=O)[C@H](C(C)C)NC(=O)[C@@H]3CSSC[C@H](NC(=O)[C@H](C)NC(=O)[C@H](Cc4ccc(O)cc4)NC(=O)CNC(=O)[C@H](CO)NC(=O)[C@H](CSSC[C@H](NC(=O)[C@@H](N)CCC(=O)O)C(=O)N[C@@H](CCCCN)C(=O)NCC(=O)N[C@@H](Cc4ccccc4)C(=O)NCC(=O)N[C@@H](CCCCN)C(=O)N[C@@H](CO)C(=O)N3)NC2=O)C(=O)N[C@@H](CO)C(=O)N[C@@H](CO)C(=O)N[C@@H](CCCNC(=N)N)C(=O)N[C@@H](Cc2c[nH]cn2)C(=O)N[C@@H](CCCCN)C(=O)N[C@@H](Cc2c[nH]c3ccccc23)C(=O)N1)C(C)C)C(=O)O [N23S–D26H–L32W] (H-ECKGFGKSCVPGKNECCSGYACSSRHKWCKVWL-OH; disulfide 2-17, 9-22, 16-29) | 71 ± 5 | – | – |
| CC(C)C[C@H](NC(=O)[C@H](Cc1c[nH]c2ccccc12)NC(=O)[C@@H](NC(=O)[C@H](CCCCN)NC(=O)[C@@H]1CSSC[C@@H]2NC(=O)[C@H](CCC(=O)O)NC(=O)[C@H](CC(N)=O)NC(=O)[C@H](CCCCN)NC(=O)CNC(=O)[C@@H]3CCCN3C(=O)[C@H](C(C)C)NC(=O)[C@@H]3CSSC[C@H](NC(=O)[C@H](C)NC(=O)[C@H](Cc4ccc(O)cc4)NC(=O)CNC(=O)[C@H](CO)NC(=O)[C@H](CSSC[C@H](NC(=O)CN)C(=O)N[C@@H](CCCCN)C(=O)NCC(=O)N[C@@H](Cc4ccccc4)C(=O)NCC(=O)N[C@@H](CCCCN)C(=O)N[C@@H](CO)C(=O)N3)NC2=O)C(=O)N[C@@H](CC(N)=O)C(=O)N[C@@H](CO)C(=O)N[C@@H](CCCCN)C(=O)N[C@@H](Cc2c[nH]cn2)C(=O)N[C@@H](CCCCN)C(=O)N[C@@H](Cc2c[nH]c3ccccc23)C(=O)N1)C(C)C)C(=O)O [E1G–R25K–D26H–L32W] (H-GCKGFGKSCVPGKNECCSGYACNSKHKWCKVWL-OH; disulfide 2-17, 9-22, 16-29) | 669 ± 70 | – | – |
| CC(C)C[C@H](NC(=O)[C@H](CC(C)C)NC(=O)[C@@H](NC(=O)[C@H](CCCCN)NC(=O)[C@@H]1CSSC[C@@H]2NC(=O)[C@H](CCC(=O)O)NC(=O)[C@H](CC(N)=O)NC(=O)[C@H](CCCCN)NC(=O)CNC(=O)[C@@H]3CCCN3C(=O)[C@H](C(C)C)NC(=O)[C@@H]3CSSC[C@H](NC(=O)[C@H](C)NC(=O)[C@H](Cc4ccc(O)cc4)NC(=O)CNC(=O)[C@H](CO)NC(=O)[C@H](CSSC[C@H](NC(=O)[C@@H](N)CCC(=O)O)C(=O)N[C@@H](CCCCN)C(=O)NCC(=O)N[C@@H](Cc4ccccc4)C(=O)NCC(=O)N[C@@H](CCCCN)C(=O)N[C@@H](CO)C(=O)N3)NC2=O)C(=O)N[C@@H](CC(N)=O)C(=O)N[C@@H](CO)C(=O)N[C@@H](CCCNC(=N)N)C(=O)N[C@@H](Cc2c[nH]cn2)C(=O)N[C@@H](CCCCN)C(=O)N[C@@H](Cc2c[nH]c3ccccc23)C(=O)N1)C(C)C)C(=O)O [D26H] (H-ECKGFGKSCVPGKNECCSGYACNSRHKWCKVLL-OH; disulfide 2-17, 9-22, 16-29) | 1500 ± 93 | – | – |
| CC(C)C[C@H](NC(=O)[C@H](Cc1c[nH]c2ccccc12)NC(=O)[C@@H](NC(=O)[C@H](CCCCN)NC(=O)[C@@H]1CSSC[C@@H]2NC(=O)[C@H](CCC(=O)O)NC(=O)[C@H](CC(N)=O)NC(=O)[C@H](CCCCN)NC(=O)CNC(=O)[C@@H]3CCCN3C(=O)[C@H](C(C)C)NC(=O)[C@@H]3CSSC[C@H](NC(=O)[C@H](C)NC(=O)[C@H](Cc4ccc(O)cc4)NC(=O)CNC(=O)[C@H](CO)NC(=O)[C@H](CSSC[C@H](NC(=O)[C@@H](N)CCC(=O)O)C(=O)N[C@@H](CCCCN)C(=O)NCC(=O)N[C@@H](Cc4ccccc4)C(=O)NCC(=O)N[C@@H](CCCCN)C(=O)N[C@@H](CO)C(=O)N3)NC2=O)C(=O)N[C@@H](CC(N)=O)C(=O)N[C@@H](CO)C(=O)N[C@@H](CCCNC(=N)N)C(=O)N[C@@H](CC(=O)O)C(=O)N[C@@H](CCCCN)C(=O)N[C@@H](Cc2c[nH]c3ccccc23)C(=O)N1)C(C)C)C(=O)O [L32W] (H-ECKGFGKSCVPGKNECCSGYACNSRDKWCKVWL-OH; disulfide 2-17, 9-22, 16-29 (inferred); N-terminus and C-terminus assumed) | – | negligible activity | > 10000 |
| CC(C)C[C@H](NC(=O)[C@H](CC(C)C)NC(=O)[C@@H](NC(=O)[C@H](CCCCN)NC(=O)[C@@H]1CSSC[C@@H]2NC(=O)[C@H](CCC(=O)O)NC(=O)[C@H](CC(N)=O)NC(=O)[C@H](CCCCN)NC(=O)CNC(=O)[C@@H]3CCCN3C(=O)[C@H](C(C)C)NC(=O)[C@@H]3CSSC[C@H](NC(=O)[C@H](C)NC(=O)[C@H](Cc4ccc(O)cc4)NC(=O)CNC(=O)[C@H](CO)NC(=O)[C@H](CSSC[C@H](NC(=O)CN)C(=O)N[C@@H](CCCCN)C(=O)NCC(=O)N[C@@H](Cc4ccccc4)C(=O)NCC(=O)N[C@@H](CCCCN)C(=O)N[C@@H](CO)C(=O)N3)NC2=O)C(=O)N[C@@H](CC(N)=O)C(=O)N[C@@H](CO)C(=O)N[C@@H](CCCNC(=N)N)C(=O)N[C@@H](CC(=O)O)C(=O)N[C@@H](CCCCN)C(=O)N[C@@H](Cc2c[nH]c3ccccc23)C(=O)N1)C(C)C)C(=O)O [E1G] (H-GCKGFGKSCVPGKNECCSGYACNSRDKWCKVLL-OH; disulfide 2-17, 9-22, 16-29 (inferred); N-terminus and C-terminus assumed) | – | negligible activity | > 10000 |
| CC(C)C[C@H](NC(=O)[C@H](CC(C)C)NC(=O)[C@@H](NC(=O)[C@H](CCCCN)NC(=O)[C@@H]1CSSC[C@@H]2NC(=O)[C@H](CCC(=O)O)NC(=O)[C@H](CC(N)=O)NC(=O)[C@H](CCCCN)NC(=O)CNC(=O)[C@@H]3CCCN3C(=O)[C@H](C(C)C)NC(=O)[C@@H]3CSSC[C@H](NC(=O)[C@H](C)NC(=O)[C@H](Cc4ccc(O)cc4)NC(=O)CNC(=O)[C@H](CO)NC(=O)[C@H](CSSC[C@H](NC(=O)[C@@H](N)CCC(=O)O)C(=O)N[C@@H](CCCCN)C(=O)NCC(=O)N[C@@H](Cc4ccccc4)C(=O)NCC(=O)N[C@@H](CCCCN)C(=O)N[C@@H](CO)C(=O)N3)NC2=O)C(=O)N[C@@H](CO)C(=O)N[C@@H](CO)C(=O)N[C@@H](CCCNC(=N)N)C(=O)N[C@@H](Cc2c[nH]cn2)C(=O)N[C@@H](CCCCN)C(=O)N[C@@H](Cc2c[nH]c3ccccc23)C(=O)N1)C(C)C)C(=O)O [N23S–D26H] (H-ECKGFGKSCVPGKNECCSGYACSSRHKWCKVLL-OH; disulfide 2-17, 9-22, 16-29) | 79 ± 4 | – | – |
